# Assay results reported in article PMC12257397, “Scaffold Hopping Strategy toward New 4‑Aminoquinazolines Active Against Extracellular and Intracellular Mycobacterium tuberculosis” (ACS Medicinal Chemistry Letters, 2025).
# Columns and labels:
# M. tuberculosis H37Rv-LP = test system: M. tuberculosis H37Rv-LP; design: method as in PMID 35262374, PMID 29035551; details: given in Figure 1A; cited from earlier work
# [1] = test system: M. tuberculosis H37Rv (Erdman); design: method as in PMID 31511370; details: given in Figure 1A; cited from earlier work
# [2] = test system: M. tuberculosis qcrCAB (wt); design: method as in PMID 31511370; details: given in Figure 1A; cited from earlier work
# [3] = test system: M. tuberculosis H37Rv (ATCC 27294); assay: MIC by resazurin reduction microplate assay (REMA); format: cell-based; details: Mycobacterium tuberculosis, converted from μg/mL to μM
# [4] = test system: M. tuberculosis H37Rv-LP (ATCC 25618); assay: microbe, parasite or virus in culture; format: cell-based; details: Mycobacterium tuberculosis, 120 h, concentration inhibiting 90% of growth, 5 days, read-out: MIC parental wild-type strain H37Rv-LP
# in vitro [5] = details: African green monkey
# in vitro [6] = details: African green monkey; remark: listed apart in the source
# in vitro [7] = details: human
# [8] = test system: H37Rv-LP (ATCC 25618) inside THP-1 cells; assay: microbe, parasite or virus in culture; format: cell-based; details: Mycobacterium tuberculosis, 72 hours; for IC50: growth of H37Rv-LP inside THP-1 cells inhibited by 50%, read-out: Intracellular IC50; for IC90: growth of H37Rv-LP inside THP-1 cells inhibited by 90%, read-out: Intracellular IC90
# [9] = test system: Staphylococcus aureus (ATCC 29213); assay: Antimicrobial spectrum MIC, S. aureus; format: cell-based
# Escherichia coli RFM 795 = assay: Antimicrobial spectrum MIC, E. coli; format: cell-based; details: Escherichia coli RFM 795 (lptD mutation)
# [10] = test system: Mycobacterium abscessus 103R; assay: Antimicrobial spectrum MIC, M. abscessus; format: cell-based
# [11] = test system: Mycobacterium avium 2285S (smooth); assay: Antimicrobial spectrum MIC, M. avium smooth; format: cell-based
# [12] = test system: Mycobacterium avium 2285R (rough); assay: Antimicrobial spectrum MIC, M. avium rough; format: cell-based
# [13] = test system: Mycobacterium smegmatis mc2155; format: cell-based
# [14] = Microsomal stability, mouse liver microsomes (MLM); format: in vitro ADME; details: male, BALB/c, pH 7.4; for half-life at 6 μM: mouse liver microsomes, read-out: MLM t1/2
# Experimental: (§1) 1.5. Microsomal stability
# (§2) Test compound (6 μM) was incubated at 37 °C with male BALB/c mouse liver microsomes or mixed gender human liver microsomes (Xenotech LLC; 0.5 mg /mL, […] potassium phosphate buﬀer, pH 7.4) and the reaclon started with addilon of excess NADPH (2 mM, pH 7.4). Samples (35 µL) were removed at lme 0, 5, 10, 20, 30, and 60 min and mixed with 35 µL of acetonitrile, methanol, wate r s o l u lon (2:1:1) containing […] internal standard terfenadine and 0.05% v/v acelc acid. The samples were centrifuged at 4000 rpm for 10 min and the supernatant was analyzed using a 1100 HPLC and Single Quad 6120 (Agilent, USA). Compounds were tested in duplic ate, and an exponenlal decay curve ﬁt was used on the ralo of peak area of test compound to internal standard at each lme point to calculate the rate constant (k). The rate of intrinsic clearance (CLint) of each test compound was then calculated using the following equalon: CLint (mL/min/mg) = k x V where V was mL/mg protein. Verapamil (6 μM) was used as a posilve control. Incubalon of each compound with microsomes in the absence of NADPH and analyzed at 0 and 60 min was used as the negalve control.
# (§3) The human biological samples were sourced ethically, and their research use was in accord with the terms of the informed consents.
# [15] = Microsomal stability, human liver microsomes (HLM); format: in vitro ADME; details: both sexes, pH 7.4; for half-life at 6 μM: human liver microsomes, read-out: HLM t1/2
# Experimental: as §1, §2, §3
# [16] = test system: M. tuberculosis H37Rv-LP (ATCC 25618); assay: ATP depletion assay (BacTiter-Glo); format: cell-based, Mycobacterium tuberculosis; details: compared to the positive control Q203
# in vitro [17] = details: human; remark: listed apart in the source
# in vitro [18] = details: human; remark: listed apart in the source
SMILES,MIC H37Rv-LP (M. tuberculosis H37Rv-LP) [µM],MIC [3] [µM],MIC [4] [µM],CC50 at 72 h (in vitro [7]; CC50 HepG2+Gal) [µM],CC50 at 72 h (in vitro [7]; CC50 HepG2+Glu) [µM],IC50 [8] [µM],IC90 [8] [µM],CIM 29213 [9] [µM],CIM RFM 795 (Escherichia coli RFM 795) [µM],CIM 103R [10] [µM],CIM 2285S [11] [µM],CIM 2285R [12] [µM],CIM mc2155 [13] [µM],"microsomal CLint at 6 μM ([14]; mouse, microsomes) [µL/min/mg]",half-life at 6 μM [14] [min],"microsomal CLint at 6 μM ([15]; human, microsomes) [µL/min/mg]",half-life at 6 μM [15] [min],CC50 at 72 h (in vitro [17]) [µM],CC50 at 72 h (in vitro [18]) [µM],also measured
FC(F)(F)c1ccc(CCNc2cc(-c3ccccn3)nc3ncnn23)cc1 [1 (TAP)],1.4,–,–,–,–,–,–,–,–,–,–,–,–,–,–,–,–,–,–,–
CCc1nc2ccc(C)cc2n1CCCNc1ccccc1 [2 (FABA)],0.056,–,–,–,–,–,–,–,–,–,–,–,–,–,–,–,–,–,–,–
CCc1nc(NCCCc2ccccc2)c2cc(C)sc2n1 [3 (CWHM-1023)],–,–,–,–,–,–,–,–,–,–,–,–,–,–,–,–,–,–,–,IC50 [1]: 0.042 µM; IC50 [2]: 0.025 µM
Cc1nc(NCCc2ccccc2)c2cc(I)ccc2n1 [9d],–,3.2,0.95,5.1,10.9,–,–,–,–,–,–,–,–,–,–,–,–,–,–,CC50 at 72 h (in vitro [5]): 11.7 µM; CC50 at 72 h (in vitro [6]): 11.7 µM
Cc1nc(NCCCc2ccccc2)c2cc(Br)ccc2n1 [18c],–,0.45,0.28,9.7,19.1,0.16,0.45,> 100,> 100,> 100,> 100,> 100,> 56.1,354,3.9,184,7.5,13.8,13.2,"remaining at 20 min, 6 μM ([14]; mouse, microsomes): 2%; remaining at 0.5 h, 6 μM ([15]; human, microsomes): 6%; ATP depletion profile [16]: none of the selected molecules produced a significant ATP depletion profile"
Cc1nc(NCCCc2ccccc2)c2cc(I)ccc2n1 [18d],–,1.6,0.58,13,20.3,0.47,1.2,> 100,> 100,> 100,> 100,> 100,> 12.4,202,6.9,243,5.7,> 20,18.3,"remaining at 5 min, 6 μM ([14]; mouse, microsomes): 63%; remaining at 20 min, 6 μM ([15]; human, microsomes): 9%"
